{
  "source": "ChEMBL document CHEMBL1201862",
  "about": "“PubChem BioAssay data set” (2004)",
  "key": {"[1]": {"assay": "HepG2 cell cytotoxicity, dose response, cytotoxicity control for Shn3 inhibitor project, CellTiter-Glo, cherry-picked (AID 624134)", "type": "functional, cell-based"}, "[2]": {"target": "T1, Mucolipin-3 (Homo sapiens, UniProt Q8TDD5)", "T1 sequence (Q8TDD5 whole entry)": "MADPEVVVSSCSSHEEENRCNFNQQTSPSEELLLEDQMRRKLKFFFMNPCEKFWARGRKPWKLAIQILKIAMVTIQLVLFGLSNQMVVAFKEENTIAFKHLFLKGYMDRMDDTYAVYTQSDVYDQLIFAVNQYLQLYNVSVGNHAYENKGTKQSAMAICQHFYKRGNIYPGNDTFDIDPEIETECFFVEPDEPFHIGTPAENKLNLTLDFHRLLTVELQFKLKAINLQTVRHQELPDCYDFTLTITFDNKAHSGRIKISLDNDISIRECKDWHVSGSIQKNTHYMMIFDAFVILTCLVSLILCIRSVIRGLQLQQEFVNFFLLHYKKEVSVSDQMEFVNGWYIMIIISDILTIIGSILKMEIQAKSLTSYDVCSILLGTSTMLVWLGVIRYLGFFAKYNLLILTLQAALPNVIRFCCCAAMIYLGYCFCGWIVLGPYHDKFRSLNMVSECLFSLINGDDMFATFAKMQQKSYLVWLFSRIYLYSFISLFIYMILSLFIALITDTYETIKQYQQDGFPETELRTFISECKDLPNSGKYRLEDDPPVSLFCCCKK", "assay": "Fluorescence counterscreen assay for […] agonists: dose response cell-based high-throughput screening assay to identify agonists of the transient receptor potential channel ML3 (TRPML3). [Related pubchem assays: 1424, 1448 ]", "type": "functional"}, "[3]": {"assay": "cells", "type": "functional"}, "[4]": {"tested_on": "HEK293", "assay": "cells", "settings": "Homo sapiens"}, "[5]": {"tested_on": "INS1", "assay": "beta cell apoptosis inhibitors, cytokine rescue, dose response, luminescence, retest (AID 449756);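 note: cell death triggered by IL-1 beta plus TNF-alpha plus IFN-gamma mixture; protective hits raise ATP signal compared with cytokine alone wells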", "type": "functional, cell-based", "settings": "Rattus norvegicus"}, "[6]": {"target": "T2, Aryl hydrocarbon receptor (Homo sapiens, UniProt P35869)", "T2 sequence (P35869 whole entry)": "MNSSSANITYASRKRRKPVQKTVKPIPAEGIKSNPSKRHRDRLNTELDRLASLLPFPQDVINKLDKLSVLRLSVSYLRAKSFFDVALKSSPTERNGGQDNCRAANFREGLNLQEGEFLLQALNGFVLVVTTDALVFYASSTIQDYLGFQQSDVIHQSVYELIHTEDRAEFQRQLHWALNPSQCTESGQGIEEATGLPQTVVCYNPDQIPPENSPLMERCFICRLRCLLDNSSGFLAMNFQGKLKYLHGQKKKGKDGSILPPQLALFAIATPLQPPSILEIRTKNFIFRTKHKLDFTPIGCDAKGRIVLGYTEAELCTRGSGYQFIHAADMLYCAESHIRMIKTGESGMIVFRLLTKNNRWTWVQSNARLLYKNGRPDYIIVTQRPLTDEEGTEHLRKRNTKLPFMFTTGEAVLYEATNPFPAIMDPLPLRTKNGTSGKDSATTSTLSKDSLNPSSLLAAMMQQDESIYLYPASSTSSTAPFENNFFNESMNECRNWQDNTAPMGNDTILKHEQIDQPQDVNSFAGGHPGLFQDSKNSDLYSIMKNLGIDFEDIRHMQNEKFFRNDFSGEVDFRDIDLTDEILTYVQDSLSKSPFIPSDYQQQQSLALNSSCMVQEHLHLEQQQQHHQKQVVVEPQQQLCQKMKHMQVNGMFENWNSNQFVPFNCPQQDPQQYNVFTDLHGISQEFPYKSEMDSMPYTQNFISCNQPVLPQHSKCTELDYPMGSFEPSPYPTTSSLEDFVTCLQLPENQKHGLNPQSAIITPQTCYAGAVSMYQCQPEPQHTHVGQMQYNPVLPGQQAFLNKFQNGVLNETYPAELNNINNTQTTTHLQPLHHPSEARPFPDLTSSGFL", "assay": "Luminescence-based cell-based high throughput dose response assay for activators of the Aryl Hydrocarbon Receptor (AHR). [Related pubchem assays: 2796 (Primary screen (AHR activators in singlicate)), 2845 (Confirmation screen (AHR activators in triplicate)), 434939 (Counterscreen (PXR activators in triplicate)), 2804 (Summary (AHR activators))]", "type": "ADME"}, "[7]": {"tested_on": "HeLa", "assay": "Cytotoxicity counterscreen assay for transcriptional activators of heat shock protein 70 (Hsp70). [Related pubchem assays: 1203, 1252 ]", "type": "functional", "settings": "Homo sapiens"}, "[8]": {"assay": "Vero E6 cell cytotoxicity, dose response, cytotoxicity control for non-replicating M. tuberculosis project, secondary assay (AID 492998)", "type": "functional, VeroE6", "settings": "Vero C1008"}, "[9]": {"assay": "HepG2 cell cytotoxicity, dose response, cytotoxicity control for non-replicating M. tuberculosis project (AID 489018)", "type": "functional", "settings": "Mycobacterium tuberculosis"}, "[10]": {"assay": "THP-1 cell cytotoxicity, dose response, cytotoxicity control for non-replicating M. tuberculosis project (AID 489025)", "type": "functional"}, "[11]": {"target": "Ion channel NompC (Danio rerio, UniProt Q7T1G6)", "sequence (Q7T1G6 whole entry)": "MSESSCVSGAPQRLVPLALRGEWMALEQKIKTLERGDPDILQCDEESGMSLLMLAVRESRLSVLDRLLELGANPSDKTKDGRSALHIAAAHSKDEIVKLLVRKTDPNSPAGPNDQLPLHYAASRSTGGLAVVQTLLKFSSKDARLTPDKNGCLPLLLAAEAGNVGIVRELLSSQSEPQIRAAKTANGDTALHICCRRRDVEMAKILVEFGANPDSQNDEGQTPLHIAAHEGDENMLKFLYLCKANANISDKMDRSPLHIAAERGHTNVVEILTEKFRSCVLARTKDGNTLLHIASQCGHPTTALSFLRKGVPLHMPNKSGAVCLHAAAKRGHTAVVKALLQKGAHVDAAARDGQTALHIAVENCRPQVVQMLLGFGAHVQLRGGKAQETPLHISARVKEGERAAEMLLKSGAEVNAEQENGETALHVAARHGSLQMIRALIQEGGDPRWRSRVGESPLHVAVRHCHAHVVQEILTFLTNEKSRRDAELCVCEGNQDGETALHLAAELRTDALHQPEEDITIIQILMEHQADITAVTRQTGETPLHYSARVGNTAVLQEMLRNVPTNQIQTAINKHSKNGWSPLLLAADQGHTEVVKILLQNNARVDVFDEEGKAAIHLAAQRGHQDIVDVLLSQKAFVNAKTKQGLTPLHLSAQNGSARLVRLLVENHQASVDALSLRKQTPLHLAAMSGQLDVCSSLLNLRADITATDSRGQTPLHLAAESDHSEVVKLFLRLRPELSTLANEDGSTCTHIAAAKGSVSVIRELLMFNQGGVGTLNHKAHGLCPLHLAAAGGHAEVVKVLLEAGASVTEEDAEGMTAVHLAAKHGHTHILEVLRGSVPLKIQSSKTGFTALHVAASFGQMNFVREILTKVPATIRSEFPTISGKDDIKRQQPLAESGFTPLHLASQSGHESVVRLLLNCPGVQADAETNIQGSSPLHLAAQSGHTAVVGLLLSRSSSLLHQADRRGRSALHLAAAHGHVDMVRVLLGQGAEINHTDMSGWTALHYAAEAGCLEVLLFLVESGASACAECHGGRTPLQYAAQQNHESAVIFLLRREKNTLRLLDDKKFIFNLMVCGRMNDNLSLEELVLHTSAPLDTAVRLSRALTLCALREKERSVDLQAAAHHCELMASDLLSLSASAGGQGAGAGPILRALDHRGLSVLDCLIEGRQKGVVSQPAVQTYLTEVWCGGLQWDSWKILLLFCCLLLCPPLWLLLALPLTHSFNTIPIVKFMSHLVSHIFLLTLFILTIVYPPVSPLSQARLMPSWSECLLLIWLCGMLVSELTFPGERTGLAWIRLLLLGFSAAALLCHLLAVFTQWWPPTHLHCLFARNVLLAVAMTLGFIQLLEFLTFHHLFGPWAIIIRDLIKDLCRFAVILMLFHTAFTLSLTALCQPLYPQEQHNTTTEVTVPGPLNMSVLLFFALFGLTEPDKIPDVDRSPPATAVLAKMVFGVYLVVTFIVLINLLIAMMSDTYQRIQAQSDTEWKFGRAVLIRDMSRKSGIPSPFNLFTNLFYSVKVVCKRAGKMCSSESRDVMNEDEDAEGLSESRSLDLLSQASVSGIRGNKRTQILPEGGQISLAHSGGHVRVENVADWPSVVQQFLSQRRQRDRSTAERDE", "assay": "Dose response cell-based high-throughput screening assay for agonists of the transient receptor potential channel N1 (TRPN1). [Related pubchem assays (depositor defined):AID1424, AID1448]", "type": "functional"}, "[12]": {"assay": "control 3'UTR Renilla luciferase suppression, dose response, counter-screen for Shn3 inhibitor project, cell-based, Clone20-Shn3RL, cherry-picked (AID 624133)", "type": "functional"}, "[13]": {"assay": "microbe, parasite or virus in culture", "type": "functional", "settings": "Mycobacterium tuberculosis"}, "[14]": {"tested_on": "HEK293", "assay": "cells", "settings": "Homo sapiens", "remark": "listed apart in the source"}, "[15]": {"target": "Beta-2 adrenergic receptor (Homo sapiens, UniProt P07550)", "sequence (P07550 whole entry)": "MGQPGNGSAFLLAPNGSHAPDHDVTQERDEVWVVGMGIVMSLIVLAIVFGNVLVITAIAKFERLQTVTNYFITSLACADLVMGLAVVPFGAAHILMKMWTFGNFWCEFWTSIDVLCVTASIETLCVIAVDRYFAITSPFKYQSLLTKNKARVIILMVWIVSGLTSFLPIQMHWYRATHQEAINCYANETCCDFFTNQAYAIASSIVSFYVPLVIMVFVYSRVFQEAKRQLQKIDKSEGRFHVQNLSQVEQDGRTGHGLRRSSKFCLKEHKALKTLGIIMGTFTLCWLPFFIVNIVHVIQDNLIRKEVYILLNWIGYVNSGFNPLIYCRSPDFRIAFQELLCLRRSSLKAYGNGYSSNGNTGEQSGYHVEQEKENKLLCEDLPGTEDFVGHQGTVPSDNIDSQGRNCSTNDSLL", "assay": "beta2AR agonists driving receptor internalization, dose response, cell-based, FAP fluorogen, flow cytometry, cherry pick 1 (AID 588763)", "type": "functional"}},
  "note": "Calls of active or inactive are those of the source.",
  "data": [
    {"compound": "CC(=O)Nc1sc2c(c1-c1nc3ccccc3s1)CCN(C(C)C)C2", "values": [
      {"measurement": "AC50", "setting": "[1]", "value": "4.53 µM (active)"},
      {"measurement": "EC50", "setting": "[2]", "value": "> 29.9 µM (not active)"},
      {"measurement": "IC50", "setting": "[3]", "value": "5.98 µM (active)"},
      {"measurement": "EC50", "setting": "[4]", "value": "> 2.21 µM (active)"},
      {"measurement": "AC50", "setting": "[5]", "value": "1.77 µM (active)"},
      {"measurement": "EC50", "setting": "[6]", "value": "> 1.13 µM (active)"},
      {"measurement": "CC50", "setting": "[7]", "value": "9.92 µM (active)"},
      {"measurement": "CC50", "setting": "[8]", "value": "3.05 µM (active)"},
      {"measurement": "CC50", "setting": "[9]", "value": "7.58 µM (active)"},
      {"measurement": "CC50", "setting": "[10]", "value": "3.78 µM (active)"},
      {"measurement": "EC50", "setting": "[11]", "value": "25.1 µM (inactive)"},
      {"measurement": "AC50", "setting": "[12]", "value": "20.1 µM (active)"},
      {"measurement": "CC50", "setting": "[13]", "value": "2.94 µM (active)"},
      {"measurement": "EC50", "setting": "[14]", "value": "> 59.6 µM (inactive)"}
    ]},
    {"compound": "Cc1cc(NC(=O)CSc2nc(C(C)C)nc3sc(C)c(C)c23)no1", "values": [
      {"measurement": "EC50", "setting": "[4]", "value": "> 59.7 µM (inactive)"},
      {"measurement": "EC50", "setting": "[14]", "value": "> 59.7 µM (inactive)"}
    ]},
    {"compound": "CCSc1nc2ccccc2n1C(=O)c1ccc(S(=O)(=O)N2CCCCCC2)cc1", "values": [
      {"measurement": "EC50", "setting": "[15]", "value": "12.5 µM (inactive)"}
    ]}
  ]
}
